Laboratory results from BindingDB's records for doi:10.1016/0960-894X(96)00045-5 (1996).
pKi: −log10 of the molar value.

target: 5-hydroxytryptamine receptor 1A (Rattus norvegicus) (UniProt P19327); assay: Inhibition of specific [3H]OH-DPAT binding at 5-hydroxytryptamine 1A receptor in rat hippocampal membranes
Sequence (P19327 whole entry, looked up): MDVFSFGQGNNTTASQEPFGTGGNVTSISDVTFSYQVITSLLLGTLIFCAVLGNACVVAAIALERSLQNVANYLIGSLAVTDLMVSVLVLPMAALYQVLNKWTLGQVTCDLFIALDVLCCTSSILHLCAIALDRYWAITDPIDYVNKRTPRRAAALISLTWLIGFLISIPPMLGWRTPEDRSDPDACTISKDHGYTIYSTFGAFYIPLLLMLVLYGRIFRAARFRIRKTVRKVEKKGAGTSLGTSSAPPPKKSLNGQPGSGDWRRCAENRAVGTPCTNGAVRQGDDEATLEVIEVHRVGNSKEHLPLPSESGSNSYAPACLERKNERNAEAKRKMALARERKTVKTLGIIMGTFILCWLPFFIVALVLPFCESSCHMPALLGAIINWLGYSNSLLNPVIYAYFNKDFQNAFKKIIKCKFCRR

pKi	SMILES
6.41	CCCN(CCC)C[C@@H]1C[C@@H]1c1cccc(OC)c1 [[(1R,2S)-2-(3-Methoxy-phenyl)-cyclopropylmethyl]-dipropyl-amine]
6.37	CCN(CC)C[C@H]1C[C@@H]1c1ccccc1OC [Diethyl-[(1S,2S)-2-(2-methoxy-phenyl)-cyclopropylmethyl]-amine]
6.42	CCCN(CCC)C[C@@H]1C[C@@H]1c1ccccc1O [2-((1S,2R)-2-Dipropylaminomethyl-cyclopropyl)-phenol]
7.24	CCCN(CCC)C[C@@H]1C[C@@H]1c1cccc(O)c1 [3-((1S,2R)-2-Dipropylaminomethyl-cyclopropyl)-phenol]
6.30	CCN(CC)C[C@H]1C[C@@H]1c1ccccc1O [2-((1S,2S)-2-Diethylaminomethyl-cyclopropyl)-phenol]
6.00	CCCN(CCC)C[C@@H]1C[C@@H]1c1ccccc1OC [[(1R,2S)-2-(2-Methoxy-phenyl)-cyclopropylmethyl]-dipropyl-amine]
6.51	CCCN(CCC)C[C@H]1C[C@@H]1c1cccc(OC)c1 [[(1S,2S)-2-(3-Methoxy-phenyl)-cyclopropylmethyl]-dipropyl-amine]
6.62	CCCN(CCC)C[C@H]1C[C@@H]1c1ccccc1OC [[(1S,2S)-2-(2-Methoxy-phenyl)-cyclopropylmethyl]-dipropyl-amine]
6.12	CCCN(CCC)C[C@H]1C[C@@H]1c1ccccc1O [2-((1S,2S)-2-Dipropylaminomethyl-cyclopropyl)-phenol]
6.73	CCCN(CCC)C[C@H]1C[C@@H]1c1cccc(O)c1 [3-((1S,2S)-2-Dipropylaminomethyl-cyclopropyl)-phenol]

SMILES	pKi
CCCN(CCC)[C@@H]1C[C@@H]1c1cccc(OC)c1 [[(1R,2R)-2-(3-Methoxy-phenyl)-cyclopropyl]-dipropyl-amine]	6.13
CCCN(CCC)[C@@H]1C[C@@H]1c1ccccc1OC [[(1R,2R)-2-(2-Methoxy-phenyl)-cyclopropyl]-dipropyl-amine]	< 5.00
CCCN(CCC)[C@H]1C[C@@H]1c1ccccc1OC [[(1S,2R)-2-(2-Methoxy-phenyl)-cyclopropyl]-dipropyl-amine]	7.77
